Results as given in patent publication US20220348970A1, “METHODS AND COMPOSITIONS FOR 3-HYDROXYPROPIONATE PRODUCTION” (The Regents of the University of California, priority 2017, published 2022).

Key:
[1] = molecular target: T1, OAADC A0A0D6NFJ6_9PROT, SEQ ID NO: 166 (Acetobacter indonesiensis, UniProt A0A6N3T5V0); assay: OAADC kinetics of A0A0D6NFJ6_9PROT on oxaloacetate; format: biochemical; conditions: pH 7.2, 21° C.
T1 sequence (A0A6N3T5V0 with tags, fused parts or gaps): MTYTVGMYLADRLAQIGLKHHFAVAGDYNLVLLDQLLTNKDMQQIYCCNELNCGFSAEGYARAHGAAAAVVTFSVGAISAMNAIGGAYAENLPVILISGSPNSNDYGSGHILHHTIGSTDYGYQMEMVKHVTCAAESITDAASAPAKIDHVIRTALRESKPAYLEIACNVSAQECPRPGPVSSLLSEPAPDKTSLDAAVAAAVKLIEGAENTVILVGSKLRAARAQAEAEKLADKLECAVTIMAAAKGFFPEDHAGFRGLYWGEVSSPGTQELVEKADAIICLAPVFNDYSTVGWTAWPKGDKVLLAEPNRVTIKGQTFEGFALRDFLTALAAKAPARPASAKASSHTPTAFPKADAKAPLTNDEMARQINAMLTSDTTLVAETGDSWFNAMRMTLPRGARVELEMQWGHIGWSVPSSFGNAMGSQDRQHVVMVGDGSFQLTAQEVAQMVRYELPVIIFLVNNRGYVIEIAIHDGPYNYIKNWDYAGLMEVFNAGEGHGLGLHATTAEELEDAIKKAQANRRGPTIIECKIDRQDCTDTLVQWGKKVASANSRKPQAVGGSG
Procedure: All substrates were dissolved in MilliQ H2O and the pH was adjusted to 7.2 as necessary. Activity for oxaloacetate, pyruvate, and 2-ketoisovalerate was measured at a 1 mM substrate concentration. The assay was performed in a 96-well half-area plate. Each reaction contained reaction buffer (100 mM HEPES, 100 mM NaCl, 10% glycerol, pH 7.2), ADH (Sigma-Aldrich, A7011, 100 U/mL for pyruvate, 600 U/mL for oxaloacetate, and 600 U/mL for 2-ketoisovalerate), and a final concentration of 0.5 mM NADPH, 0.1 mM TPP, and 1 mM MgSO4. A range of substrate concentrations (0.1 mM-5 mM) were uSEQ to perform steady-state kinetics measurement over a period of one hour. Absorbance readings were taken at one minute intervals at 340 nm at 21° C. for 60 minutes using the Synergy H1 spectrophotometer (Biotek). Kinetic parameters (ka and Ks1) were determined by fitting initial velocity versus substrate concentration data to the Michaelis-Menten equation.
A second round of genome mining was conducted as described in Example 1, except using the 4COK sequence as the input. Genes encoding candidate OAADCs were synthesized and expressed in E. coli for further characterization. OAADC activity was assayed as described in Example 1.

[2] = molecular target: T2, pyruvate decarboxylase from Gluconacetobacter diazotrophicus (4COK), SEQ ID NO: 1 (Gluconacetobacter diazotrophicus, UniProt A9H275); assay: Steady-state kinetics of 4COK decarboxylase on pyruvate and oxaloacetate (ADH/NADPH coupled, 340 nm); format: biochemical; conditions: pH 7.2, 21° C., 0.1 mM-5 mM substrate
T2 construct: likely strain PAl 5 (ATCC 49037 / DSM 5601)
T2 sequence (A9H275 1-558): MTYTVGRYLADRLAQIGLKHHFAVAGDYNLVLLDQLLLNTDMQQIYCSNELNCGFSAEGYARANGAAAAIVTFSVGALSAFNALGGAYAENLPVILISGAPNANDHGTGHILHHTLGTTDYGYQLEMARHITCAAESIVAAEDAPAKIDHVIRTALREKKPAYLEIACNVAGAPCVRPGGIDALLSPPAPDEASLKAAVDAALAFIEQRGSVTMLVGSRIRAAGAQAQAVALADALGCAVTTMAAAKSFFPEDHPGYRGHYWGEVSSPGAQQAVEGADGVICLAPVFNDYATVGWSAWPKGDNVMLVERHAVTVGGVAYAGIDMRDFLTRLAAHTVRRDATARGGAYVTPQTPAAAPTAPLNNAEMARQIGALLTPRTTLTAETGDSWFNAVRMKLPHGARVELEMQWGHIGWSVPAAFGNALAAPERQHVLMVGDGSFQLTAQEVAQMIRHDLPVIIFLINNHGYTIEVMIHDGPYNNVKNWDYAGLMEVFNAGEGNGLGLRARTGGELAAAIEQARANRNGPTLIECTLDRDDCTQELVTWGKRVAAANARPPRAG
Procedure: Overnight cultures of BLR cells suspended in a 2 mL volume were transformed with a pet29b+ plasmid (encoding polypeptides of interest with a C-terminal His-tag) and grown in Terrific Broth with 50 μg/ml kanamycin. Cultures were diluted 1:1.000 in 500 ml of Terrific Broth with 1 mM MgSO4, 1% glucose and 50 μg/ml antibiotic and then grown at 37° C. for 24 hours. Cultures were pelleted down at 4,700 RPM for 10 minutes and resuspended in auto-induction media (LB broth, 1 mM MgSO4, 0.1 mM TPP, 1×NPS and 1×5052) for induction at 18° C. for 20 hours. […] Protein concentrations were determined using a Synergy H1 spectrophotometer (Biotek) by measuring absorbance at 280 nm using calculated extinction coefficients.
All substrates were dissolved in MilliQ H2O and the pH was adjusted to 7.2 as necessary. Activity for oxaloacetate, pyruvate, and 2-ketoisovalerate was measured at a 1 mM substrate concentration. […] Absorbance readings were taken at one minute intervals at 340 nm at 21° C. for 60 minutes using the Synergy H1 spectrophotometer (Biotek). Kinetic parameters (ka and Ks1) were determined by fitting initial velocity versus substrate concentration data to the Michaelis-Menten equation. […]

Km [1]: > 20 mM
Km [2]: > 20 mM
SMILES: O=C(O)CC(=O)C(=O)O [Oxaloacetate]
